Test results taken from patent US20170248616A1, “IN VITRO COMPOSITIONS COMPRISING HUMAN SAMPLE AND AMYLOID TARGETING AGENT” (Amydis Diagnostics, Inc., priority 2014, published 2017).

Molecular target: T1, amyloid deposits in hippocampal brain sections (Homo sapiens, UniProt P05067)
T1 construct: from tissue; host or cells: hippocampal brain sections of a mouse model for Alzheimer's disease
Test: Fluorescence labeling of amyloid deposits in hippocampal brain sections from a mouse model for Alzheimer's disease
Conditions: excitation wavelength 488 nm; fluorescence micrographs
Excerpt: An excitation wavelength of 488 nm was used to excite the fluorophores. FIG. 13. […] An excitation wavelength of 488 nm was used to excite the fluorophores.

T1 sequence (P05067 672-713 limits assumed): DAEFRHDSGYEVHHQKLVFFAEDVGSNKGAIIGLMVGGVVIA

Structure (SMILES) | fluorescence labeling of amyloid deposits
COCCOCCOCCNC(=O)/C(C#N)=C/c1ccc2cc(N3CCCCC3)ccc2c1 [Compound 1, 2-cyano-N-(2-(2-(2-methoxyethoxy)ethoxy)ethyl)-3-(6-(piperidin-1-yl)naphthalen-2-yl)acrylamide] | fluorescence labeling of amyloid deposits
COCCOCCOCCNS(=O)(=O)/C(C#N)=C/c1ccc2cc(N3CCCCC3)ccc2c1 [Compound 2, 1-cyano-N-(2-(2-(2-methoxyethoxy)ethoxy)ethyl)-2-(6-(piperidin-1-yl)naphthalen-2-yl)ethenesulfonamide] | fluorescence labeling of amyloid deposits
